Laboratory results taken from patent publication US20110288154A1, “RNA Interference Mediated Inhibition of Epithelial Sodium Channel (ENaC) Gene Expression Using Short Interfering Nucleic Acid (siNA)” (MERCK & CO., INC., priority 2008, published 2011).
[invAb] = inverted abasic unit; m = 2'-O-methyl; r = 2'-OH (RNA); f = 2'-fluoro

System: ENaCα mRNA
Assay: Screening of ENaCα siNAs in human A549 cells (quantitative RT-PCR)
Assay type: cell-based
Parameters: Percent Reduction of the ENaCα mRNA relative to a non-targeting control siNA (NTC): concentration or dose not given beside the values
Conditions: human A549 cells, n = 3; for Avg ENaCα Expression: 25 nM siNA with Lipofectamine 2000, harvested 24 hours post-transfection; for Mean (level of ENaCα expression normalized to the level of GAPDH) / Percent Reduction of the ENaCα mRNA relative to a non-targeting control siNA (NTC) / Avg GAPDH Expression: 24 hours post-transfection; for Avg GAPDH Expression: housekeeping gene used for normalisation
Outline: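 ENaCα knockdown in human A549 cells is measured by qRT-PCR (standard-curve quantitation), normalized to a non-targeting siNA control. Lipofectamine 2000 complexes deliver 25 nM siNA per well (lipid 2.33 μg/ml, held constant in dose-response); IC50 from a sigmoidal variable-slope fit.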

Row | Substance | Avg ENaCα Expression | Mean (level of ENaCα expression normalized to the level of GAPDH) | Percent Reduction of the ENaCα mRNA relative to a non-targeting control siNA (NTC) [%] | Avg GAPDH Expression
1 | B cAcuccuGcuuccAGGAGA TTB / UCUccuGGAAGcAGGAGuGUU (sense CACUCCUGCUUCCAGGAGATT; antisense UCUCCUGGAAGCAGGAGUGUU; siRNA; sense: DNA at AGT, 2'-fluoro at CU, [invAb] at 5' end, 3' end, backbone not given here; antisense: sugars from the 5' end rrrfffmmmmmfmmmmmfmmm, backbone not given here) [Site 1351] | 68.14 | 1.12 | 28.2 | 64.22
2 | B cAGAGcAGAAuGAcuucAu TTB / AUGAAGucAuucuGcucuGUU (sense CAGAGCAGAAUGACUUCAUTT; antisense AUGAAGUCAUUCUGCUCUGUU; siRNA; sense: DNA at AGT, 2'-fluoro at CU, [invAb] at 5' end, 3' end, backbone not given here; antisense: sugars from the 5' end rrrmmmffmffffmffffmmm, backbone not given here) [Site 1100] | 66.11 | 1.14 | 26.8 | 64.16
3 | B GccAuccGccuGGuGuGcu TTB / AGCAcAccAGGcGGAuGGcUU (sense GCCAUCCGCCUGGUGUGCUTT; antisense AGCACACCAGGCGGAUGGCUU; siRNA; sense: DNA at AGT, 2'-fluoro at CU, [invAb] at 5' end, 3' end, backbone not given here; antisense: sugars from the 5' end rrrmfmffmmmfmmrfmmfmm, backbone not given here) [Site 310] | 68.10 | 1.57 | −1.0 | 45.78
4 | B GuccAAccuGGGcAGccAG TTB / CUGGcuGcccAGGuuGGAcUU (sense GUCCAACCUGGGCAGCCAGTT; antisense CUGGCUGCCCAGGUUGGACUU; siRNA; sense: DNA at AGT, 2'-fluoro at CU, [invAb] at 5' end, 3' end, backbone not given here; antisense: sugars from the 5' end rmmmffmfffmmmffmmmfmm, backbone not given here) [Site 1743] | 68.82 | 0.57 | 13.9 | 121.24
